Results taken from PubChem BioAssay (NCI).
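How tested: cells in 96-well plates exposed to compound for 48 hours at five concentrations. TGI is the concentration that stops growth completely.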

Key:
Experiment in all cases: NCI anticancer screen, dose series, 48 h
[1] = tested on: 786-0 renal
[2] = tested on: A498 renal
[3] = tested on: A549 NSCLC
[4] = tested on: ACHN renal
[5] = tested on: CAKI-1 renal
[6] = tested on: CCRF-CEM leukemia
[7] = tested on: COLO 205 colon
[8] = tested on: DLD-1 colon
[9] = tested on: DMS 114 small cell lung
[10] = tested on: DMS 273 small cell lung
[11] = tested on: EKVX NSCLC
[12] = tested on: HCC-2998 colon
[13] = tested on: HCT-15 colon
[14] = tested on: HL-60(TB) leukemia
[15] = tested on: HOP-18 NSCLC
[16] = tested on: HOP-62 NSCLC
[17] = tested on: HT29 colon
[18] = tested on: IGROV1 ovarian
[19] = tested on: K-562 leukemia
[20] = tested on: KM12 colon
[21] = tested on: KM20L2 colon
[22] = tested on: LOX IMVI melanoma
[23] = tested on: LXFL 529 NSCLC
[24] = tested on: M14 melanoma
[25] = tested on: M19-MEL melanoma
[26] = tested on: MALME-3M melanoma
[27] = tested on: MOLT-4 leukemia
[28] = tested on: NCI-H226 lung
[29] = tested on: NCI-H23 lung
[30] = tested on: NCI-H460 lung
[31] = tested on: NCI-H522 lung
[32] = tested on: OVCAR-3 ovarian
[33] = tested on: OVCAR-4 ovarian
[34] = tested on: OVCAR-5 ovarian
[35] = tested on: OVCAR-8 ovarian
[36] = tested on: RPMI-8226 leukemia
[37] = tested on: RXF 393 renal
[38] = tested on: RXF-631 renal
[39] = tested on: SF-268 CNS
[40] = tested on: SF-295 CNS
[41] = tested on: SF-539 CNS
[42] = tested on: SK-MEL-2 melanoma
[43] = tested on: SK-MEL-28 melanoma
[44] = tested on: SK-MEL-5 melanoma
[45] = tested on: SK-OV-3 ovarian
[46] = tested on: SN12C renal
[47] = tested on: SNB-19 CNS
[48] = tested on: SNB-75 CNS
[49] = tested on: SW-620 colon
[50] = tested on: TK-10 renal
[51] = tested on: U251 CNS
[52] = tested on: UACC-257 melanoma
[53] = tested on: UACC-62 melanoma
[54] = tested on: UO-31 renal
[55] = tested on: HCT-116 colon
[56] = tested on: HOP-92 NSCLC
[57] = tested on: SNB-78 CNS
[58] = tested on: SR leukemia
[59] = tested on: XF 498 CNS

Cc1cc(Cl)ccc1NC(=O)CC1SC(N)=NC1=O (stereo unspecified)
TGI [1]: > 100 µM
TGI [2]: > 100 µM
TGI [3]: > 100 µM
TGI [4]: > 100 µM
TGI [5]: > 100 µM
TGI [6]: > 100 µM
TGI [7]: > 100 µM
TGI [8]: > 100 µM
TGI [9]: > 100 µM
TGI [10]: > 100 µM
TGI [11]: > 100 µM
TGI [12]: > 100 µM
TGI [13]: > 100 µM
TGI [14]: > 100 µM
TGI [15]: > 100 µM
TGI [16]: > 100 µM
TGI [17]: > 100 µM
TGI [18]: > 100 µM
TGI [19]: > 100 µM
TGI [20]: > 100 µM
TGI [21]: > 100 µM
TGI [22]: > 100 µM
TGI [23]: > 100 µM
TGI [24]: > 100 µM
TGI [25]: > 100 µM
TGI [26]: > 100 µM
TGI [27]: > 100 µM
TGI [28]: > 100 µM
TGI [29]: > 100 µM
TGI [30]: > 100 µM
TGI [31]: > 100 µM
TGI [32]: > 100 µM
TGI [33]: > 100 µM
TGI [34]: > 100 µM
TGI [35]: > 100 µM
TGI [36]: > 100 µM
TGI [37]: > 100 µM
TGI [38]: > 100 µM
TGI [39]: > 100 µM
TGI [40]: > 100 µM
TGI [41]: > 100 µM
TGI [42]: > 100 µM
TGI [43]: > 100 µM
TGI [44]: > 100 µM
TGI [45]: > 100 µM
TGI [46]: > 100 µM
TGI [47]: > 100 µM
TGI [48]: > 100 µM
TGI [49]: > 100 µM
TGI [50]: > 100 µM
TGI [51]: > 100 µM
TGI [52]: > 100 µM
TGI [53]: > 100 µM
TGI [54]: > 100 µM

O=C1Cc2ccccc2N1c1c(Cl)cccc1Cl
TGI [1]: > 100 µM
TGI [2]: > 100 µM
TGI [3]: > 100 µM
TGI [4]: > 100 µM
TGI [5]: > 100 µM
TGI [6]: > 100 µM
TGI [7]: > 100 µM
TGI [8]: > 100 µM
TGI [9]: 95.4 µM
TGI [11]: > 100 µM
TGI [12]: > 100 µM
TGI [55]: > 100 µM
TGI [13]: > 100 µM
TGI [14]: 50.8 µM
TGI [15]: > 100 µM
TGI [16]: > 100 µM
TGI [56]: > 100 µM
TGI [17]: > 100 µM
TGI [18]: > 100 µM
TGI [19]: > 100 µM
TGI [20]: > 100 µM
TGI [21]: > 100 µM
TGI [22]: > 100 µM
TGI [23]: > 100 µM
TGI [24]: > 100 µM
TGI [25]: > 100 µM
TGI [26]: > 100 µM
TGI [27]: 98.1 µM
TGI [28]: > 100 µM
TGI [29]: > 100 µM
TGI [30]: > 100 µM
TGI [31]: > 100 µM
TGI [32]: > 100 µM
TGI [33]: > 100 µM
TGI [34]: > 100 µM
TGI [35]: > 100 µM
TGI [36]: 62.7 µM
TGI [38]: > 100 µM
TGI [39]: > 100 µM
TGI [40]: > 100 µM
TGI [41]: > 100 µM
TGI [42]: > 100 µM
TGI [43]: > 100 µM
TGI [44]: > 100 µM
TGI [45]: > 100 µM
TGI [46]: > 100 µM
TGI [47]: > 100 µM
TGI [48]: > 100 µM
TGI [57]: > 100 µM
TGI [58]: 90.2 µM
TGI [49]: > 100 µM
TGI [50]: > 100 µM
TGI [51]: > 100 µM
TGI [52]: > 100 µM
TGI [53]: > 100 µM
TGI [54]: > 100 µM
TGI [59]: 82.3 µM
